We go through three compounds from patent US20160122305A1, “Topical Compositions and Methods of Use Thereof” (Avon Products, Inc., priority 2014, published 2016).

The term EC50 denotes the concentration that produces a half-maximal response.

The target in one test is T1, α2A adrenergic receptor (Homo sapiens, UniProt P08913).
T1 sequence (P08913 1-465): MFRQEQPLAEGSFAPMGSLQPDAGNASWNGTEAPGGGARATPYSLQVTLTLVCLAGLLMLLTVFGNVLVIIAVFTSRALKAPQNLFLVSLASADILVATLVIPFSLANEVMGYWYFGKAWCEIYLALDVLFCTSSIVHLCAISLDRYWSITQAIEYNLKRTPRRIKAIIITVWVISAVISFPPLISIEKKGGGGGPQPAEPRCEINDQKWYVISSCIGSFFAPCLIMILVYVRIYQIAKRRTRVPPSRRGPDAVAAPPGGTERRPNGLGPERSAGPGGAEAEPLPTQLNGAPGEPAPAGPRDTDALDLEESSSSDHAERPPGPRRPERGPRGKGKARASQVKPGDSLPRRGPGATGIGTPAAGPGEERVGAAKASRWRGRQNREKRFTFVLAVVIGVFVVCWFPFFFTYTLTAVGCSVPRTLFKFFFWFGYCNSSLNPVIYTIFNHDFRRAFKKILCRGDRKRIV
As to the kind of experiment: SelectScreen cell-based GPCR profiling, α2A agonist assay. The conditions noted are these: 5 hours incubation, fluorescence read. The method, then:
(§1) The Compounds of Formulas (III)-(V) were subjected to an in vitro screening against α1A, α2A, and β2 adrenergic receptors using SelectScreen® Cell-based GPCR Profiling Service from Life Technologies. In each of the three agonist assays (α1A, α2A, and β2), cells were thawed and resuspended in Assay Media (DMEM, 10% dialyzed FBS, 25 mM HEPES pH 7.3, 0.1 mM NEAA, 100 U/mL/100 μg/mL Pen/Strep) to a concentration of 312,500 cells/mL. 32 μL of cell suspension (10,000 cells) were added to each well of a 384-well TC-Treated assay plate. Cells in Assay Media were incubated for 16-24 hours in the plate at 37° C./5% CO2 in a humidified incubator. 4 μL of a 10× serial dilution of a control agonist (phenylephrine for α1A; UK 14304 for α2A; isoproterenol for β2) or a Compound III-V were added to appropriate wells of the plate. 4 μL of Assay Media was added to all wells to bring the final assay volume to 40 μL. The plate was incubated for 5 hours at 37° C./5% CO2 in a humidified incubator. 8 μL of 1 μM Substrate+Loading Solution was added to each well and the plate was incubated for 2 hours at room temperature. The plate was read on a fluorescence plate reader.

A further test addresses T2, α1A adrenergic receptor (Homo sapiens, UniProt P35348).
T2 sequence (P35348 1-466): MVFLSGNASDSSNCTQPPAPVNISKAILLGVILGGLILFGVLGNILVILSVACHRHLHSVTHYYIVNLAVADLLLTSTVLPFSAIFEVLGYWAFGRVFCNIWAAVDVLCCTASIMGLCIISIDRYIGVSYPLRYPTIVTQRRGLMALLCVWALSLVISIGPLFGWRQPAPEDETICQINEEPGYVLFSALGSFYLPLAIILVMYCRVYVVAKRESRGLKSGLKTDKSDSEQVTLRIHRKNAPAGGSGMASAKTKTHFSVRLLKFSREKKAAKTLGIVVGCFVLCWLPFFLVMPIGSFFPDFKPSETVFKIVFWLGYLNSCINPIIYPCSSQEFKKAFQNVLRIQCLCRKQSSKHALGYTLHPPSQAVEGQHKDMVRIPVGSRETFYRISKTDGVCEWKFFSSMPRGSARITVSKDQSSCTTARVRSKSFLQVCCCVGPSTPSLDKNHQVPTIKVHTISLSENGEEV
As to the kind of experiment: SelectScreen cell-based GPCR profiling, α1A agonist assay. As to conditions: for selectivity of agonism (α1A and/or α2A EC50 less than 1,000 nM and insignificant activity at β2): classification in words from Table 1 EC50 values, insignificant β2 activity = EC50 greater than about 500 nM. As to the method: 32 μL of cell suspension (10,000 cells) were added to each well of a 384-well TC-Treated assay plate. Cells in Assay Media were incubated for 16-24 hours in the plate at 37° C./5% CO2 in a humidified incubator. […] 4 μL of Assay Media was added to all wells to bring the final assay volume to 40 μL. The plate was incubated for 5 hours at 37° C./5% CO2 in a humidified incubator. 8 μL of 1 μM Substrate+Loading Solution was added to each well and the plate was incubated for 2 hours at room temperature. The plate was read on a fluorescence plate reader.

Another test deals with β2 adrenergic receptor (Homo sapiens, UniProt P07550). Kind of test: SelectScreen cell-based GPCR profiling, β2 agonist assay. As to conditions: 5 hours incubation, fluorescence read. The method, then: as §1
The mark [1] stands for this setting: agonist assay, 5 hours incubation, fluorescence read, read-out: α1A Activity, EC50.

Like-named read-outs stand apart in the source and are kept apart here.

β2 adrenergic receptor, sequence (P07550 whole entry): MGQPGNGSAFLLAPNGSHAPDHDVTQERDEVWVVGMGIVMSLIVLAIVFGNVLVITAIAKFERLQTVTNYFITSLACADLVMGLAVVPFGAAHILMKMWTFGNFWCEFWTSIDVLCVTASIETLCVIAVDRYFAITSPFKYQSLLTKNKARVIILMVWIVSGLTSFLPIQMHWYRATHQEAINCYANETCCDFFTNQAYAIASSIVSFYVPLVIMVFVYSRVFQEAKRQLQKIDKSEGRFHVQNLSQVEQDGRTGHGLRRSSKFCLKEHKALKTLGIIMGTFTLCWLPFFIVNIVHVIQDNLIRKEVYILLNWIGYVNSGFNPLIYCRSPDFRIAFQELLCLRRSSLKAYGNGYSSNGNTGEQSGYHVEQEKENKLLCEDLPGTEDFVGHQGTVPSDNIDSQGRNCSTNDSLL

`CC(Oc1ccccc1-c1cccnc1)C1=NCCN1` (centres unmarked) [IV]: the EC50 at α2A adrenergic receptor is more than 25000 nM; at α1A adrenergic receptor (setting [1]) it was 13 nM; at β2 adrenergic receptor it was more than 25000 nM. The “selectivity of agonism (α1A and/or α2A EC50 less than 1,000 nM and insignificant activity at β2)” value at α1A adrenergic receptor was “selective α1A receptor agonist”.

With `CC(Oc1ccccc1/C=N/O)C1=NCCN1` (centres unmarked) [V], the EC50 on α2A adrenergic receptor was 277 nM; at α1A adrenergic receptor (setting [1]), 32.6 nM; on β2 adrenergic receptor it was more than 63000 nM. Besides, at α1A adrenergic receptor, the “selectivity of agonism (α1A and/or α2A EC50 less than 1,000 nM and insignificant activity at β2)” value was “selective α1A and α2A receptor agonist”.

Turning to `CC(Oc1ccccc1C1CCCC1)C1=NCCN1` (centres unmarked) [Compound III], the results for the EC50 at α2A adrenergic receptor, on α1A adrenergic receptor and at β2 adrenergic receptor were 18.7 nM, less than 0.119 nM and more than 6300 nM, respectively.
